The values that follow are results of earlier work, collected in patent US20250375404A1, “AN ORODISPERSIBLE PHARMACEUTICAL COMPOSITION OF BACLOFEN AND ITS PROCESS OF PREPARATION” (NOVUMGEN LIMITED, priority 2022, published 2025).

SMILES strings stand for the structures.

The conditions of this series: in vivo.

Regarding `NCC(CC(=O)O)c1ccc(Cl)cc1` (stereo not shown) [Baclofen], the “Absorption from the gastro-intestinal tract” value was “rapidly and completely absorbed”.
